Measurements: US20080207900A1, “TWO CYCLIC OXOMORPHORIN DERIVATIVES” (priority 2007, published 2008)

System: Aβ42 production
Assay: Quantitation of Aβ peptide in neuronal cell culture derived from a rat fetal brain (Aβ ELISA)
Format: cell-based
Conditions: rat primary neuronal cell culture (cerebral cortex, 18-day embryos); medium recovered 3 days after adding the compound; Aβx-42 ELISA; test concentration not given
Text: Quantitation of Aβ Peptide in Neuronal Cell Culture Derived from a Rat Fetal Brain.
The cerebral cortex was isolated from 18-day embryos of Wister rats (Charles River Japan, Yokohama, Japan) and cultured. More specifically, under ether anesthesia, embryos were aseptically resected from pregnant rats. The brains were resected from the embryos and placed in an ice cold L-15 medium (Invitrogen Corp. Cat. #11415-064, Carlsbad, Calif., USA or SIGMA L15181 and the like). From the resected brains, the cerebral cortex was collected under a stereoscopic microscope. The collected pieces of the cerebral cortex were treated in an enzyme solution containing 0.25% trypsin (Invitrogen Corp. Cat. #15050-065, Carlsbad, Calif. USA) and 0.01% DNase (Sigma D5025, St. Louis, Mo., USA) at 37° C. for 30 minutes to disperse cells. Then, the enzyme reaction was stopped by adding inactivated horse serum. The resultant enzyme treatment solution was centrifuged at 1500 rpm for 5 minutes to remove the supernatant. A medium (5-10 ml) was added to the obtained cell aggregates. The medium used was Neurobasal medium (Invitrogen Corp. Cat. #21103-049, Carlsbad, Calif., USA) added with 2% B27 supplement (Invitrogen Corp. Cat #17504-044, Carlsbad, Calif. USA), 25 μM 2-mercaptoethanol (2-ME, WAKO Cat. #139-06861, Osaka, Japan), 0.5 mM L-glutamine (Invitrogen Corp. Cat. #25030-081, Carlsbad, Calif., USA) and Antibiotics-Antimycotics (Invitrogen Corp. Cat. #15240-062, Carlsbad, Calif., USA) (Neurobasal/B27/2-ME). However, a media without 2-ME (Neurobasal/B27) was used when an assay was carried out. The cell aggregates mixed with the medium were pipetted gently to re-disperse the cells. The resultant cell dispersion was filtered through a 40 μm nylon mesh (cell strainer, Cat. #. 35-2340, Becton Dickinson Labware, Franklin Lakes, N.J., USA) to obtain a neuronal cell suspension by removing cell aggregates. The resultant neuronal cell suspension was diluted with the medium and seeded into poly-L or D-lysine coated 96 well polystyrene culture vessels (Falcon Cat. #. 35-3075, Becton Dickinson Labware, Franklin Lakes, N.J., USA, coated with poly-L-lysine by a following method or BIOCOAT™πcell environments Poly-D-lysine cell ware 96-well plate, Cat. #. 35-6461, Becton Dickinson Labware, Franklin Lakes, N.J., USA) at 100 μL/well so that the initial cell density was 5×10^5 cells/cm^2. The poly-L-lysine coating was carried out as follows. Using 0.15 M Borate buffer (SIGMA P2636, St. Louis, Mo., USA) solution was aseptically prepared. The resultant solution was added to 96 well polystyrene culture vessels at […] and incubated at room temperature for 1 hour or longer or at 4° C. overnight or longer. Then the coated 96 well polystyrene culture vessels were washed with sterilized water 4 times or more, dried or rinsed with sterilized PBS or the medium and used for seeding the cells. After culturing the seeded cells were incubated at 37° C. in an incubator under a 5% CO2-95% air for 1 day, the whole medium was replaced with fresh Neurobasal/B27/2-ME medium, and the incubation was continued for 3 days.
At day 4 of culturing, drugs were added as follows. The whole medium was withdrawn and Neurobasal medium containing 2% B-27 but no 2-ME (Neurobasal/B27) was added to the well at 180 μL/well. A dimethylsulfoxide (hereinafter abbreviated as DMSO) solution of a test compound was diluted with Neurobasal/B27 to a 10 times concentration of the final concentration. The resultant diluted solution was added to the well at 20 μL/well and mixed well. The final DMSO concentration was to be 1% or less. Only DMSO was added to the control group.
After culturing 3 days after adding the compound, the whole medium was recovered. The medium thus obtained was used as ELISA samples. For Aβx-42 measurement, no dilution was made but for Aβx-40 measurement, samples were diluted 5 folds with the diluent attached to the ELISA kit to be subjected to the ELISA tests. […]

| SMILES | Aβ42 production reducing activity |
| --- | --- |
| COc1cc(/C=C2\OC(C)(C)[C@H]3COC[C@@H](c4cc(F)c(F)c(F)c4)N3C2=O)ccc1-n1cnc(C)c1 [Example 19] | 42 % of CTRL |
| COc1cc(/C=C2\OC(C)(C)[C@H]3CC[C@@H](c4ccc(Cl)cc4)N3C2=O)ccc1-n1cnc(C)c1 [Example 8, (Z)-(6S,8aR)-6-(4-chlorophenyl)-3-[3-methoxy-4-(4-methylimidazol-1-yl)benzylidene]-1,1-dimethyltetrahydropyrrolo[2,1-c][1,4]oxazin-4-one] | 74 % of CTRL |
| COc1cc(/C=C2\O[C@@H](C)[C@H]3CCC[C@@H](c4cc(F)c(F)c(F)c4)N3C2=O)ccc1-n1cnc(C)c1 [Example 17, (Z)-(1S,6S,9aR)-3-[3-methoxy-4-(4-methylimidazol-1-yl)benzylidene]-1-methyl-6-(3,4,5-trifluorophenyl)hexahydropyrido[2,1-c][1,4]oxazin-4-one] | 53 % of CTRL |
| COc1cc(/C=C2\OC(C)(C)[C@H]3CC[C@@H](c4cc(F)c(F)c(F)c4)N3C2=O)ccc1-n1cnc(C)c1 [Example 11, (Z)-(6S,8aR)-3-[3-methoxy-4-(4-methylimidazol-1-yl)benzylidene]-1,1-dimethyl-6-(3,4,5-trifluorophenyl)tetrahydropyrrolo[2,1-c][1,4]oxazine-4 one] | 67 % of CTRL |
| COc1cc(/C=C2\O[C@@H](C)[C@H]3CC[C@@H](c4cc(F)c(F)c(F)c4)N3C2=O)ccc1-n1cnc(C)c1 [Example 12, (Z)-(1S,6S,8aR)-3-[3-Methoxy-4-(4-methylimidazol-1-yl)benzylidene]-1-methyl-6-(3,4,5-trifluorophenyl)tetrahydropyrrolo[2,1-c][1,4]oxazin-4-one] | 91 % of CTRL |
| COc1cc(/C=C2\O[C@@H](C)[C@H]3COC[C@@H](c4cc(F)c(F)c(F)c4)N3C2=O)ccc1-n1cnc(C)c1 [Example 2, (Z)-(1S,6R,9aR)-3-[3-methoxy-4-(4-methylimidazol-1-yl)benzylidene]-1-methyl-6-(3,4,5-trifluorophenyl)tetrahydro-[1,4]oxazino[3,4-c][1,4]oxazin-4-one] | 52 % of CTRL |
| COc1cc(/C=C2\O[C@@H](C)[C@H]3CC[C@@H](c4ccc(Cl)cc4)N3C2=O)ccc1-n1cnc(C)c1 [Example 9, (Z)-(1S,6S,8aR)-6-(4-chlorophenyl)-3-[3-methoxy-4-(4-methylimidazol-1-yl)benzylidene]-1-methyltetrahydropyrrolo[2,1-c][1,4]oxazin-4-one] | 95 % of CTRL |
